ChEMBL document CHEMBL5620355, “Discovery of intracellular self-assembly protein degraders driven by tumor-specific activatable bioorthogonal reaction” (Eur J Med Chem, 2023)
Calls of active or inactive are those of the source. The calls are words filed in the database; no cut-off is given here.

Experiments:
[1] = test system: U-87 MG; experiment: Induction of apoptosis in human U87 cells assessed as late apoptotic cells at 10 uM incubated for 48 hrs in presence of 4-(4-(3-(4-chloro-3-(trifluoromethyl)phenyl)ureido)phenoxy)-N-(prop-2-yn-1-yl)picolinamide by Annexin V-FLTC/PI staining based flow cytometry (reference value: 3.71 %); format: functional, U-87MG ATCC
[2] = target: T1, Ephrin type-B receptor 4 (Homo sapiens) (UniProt P54760); experiment: Induction of EphB4 degradation in human U87 cells at 10 uM incubated for 48 hrs by Western blot analysis; format: cell-based
T1 sequence (whole entry): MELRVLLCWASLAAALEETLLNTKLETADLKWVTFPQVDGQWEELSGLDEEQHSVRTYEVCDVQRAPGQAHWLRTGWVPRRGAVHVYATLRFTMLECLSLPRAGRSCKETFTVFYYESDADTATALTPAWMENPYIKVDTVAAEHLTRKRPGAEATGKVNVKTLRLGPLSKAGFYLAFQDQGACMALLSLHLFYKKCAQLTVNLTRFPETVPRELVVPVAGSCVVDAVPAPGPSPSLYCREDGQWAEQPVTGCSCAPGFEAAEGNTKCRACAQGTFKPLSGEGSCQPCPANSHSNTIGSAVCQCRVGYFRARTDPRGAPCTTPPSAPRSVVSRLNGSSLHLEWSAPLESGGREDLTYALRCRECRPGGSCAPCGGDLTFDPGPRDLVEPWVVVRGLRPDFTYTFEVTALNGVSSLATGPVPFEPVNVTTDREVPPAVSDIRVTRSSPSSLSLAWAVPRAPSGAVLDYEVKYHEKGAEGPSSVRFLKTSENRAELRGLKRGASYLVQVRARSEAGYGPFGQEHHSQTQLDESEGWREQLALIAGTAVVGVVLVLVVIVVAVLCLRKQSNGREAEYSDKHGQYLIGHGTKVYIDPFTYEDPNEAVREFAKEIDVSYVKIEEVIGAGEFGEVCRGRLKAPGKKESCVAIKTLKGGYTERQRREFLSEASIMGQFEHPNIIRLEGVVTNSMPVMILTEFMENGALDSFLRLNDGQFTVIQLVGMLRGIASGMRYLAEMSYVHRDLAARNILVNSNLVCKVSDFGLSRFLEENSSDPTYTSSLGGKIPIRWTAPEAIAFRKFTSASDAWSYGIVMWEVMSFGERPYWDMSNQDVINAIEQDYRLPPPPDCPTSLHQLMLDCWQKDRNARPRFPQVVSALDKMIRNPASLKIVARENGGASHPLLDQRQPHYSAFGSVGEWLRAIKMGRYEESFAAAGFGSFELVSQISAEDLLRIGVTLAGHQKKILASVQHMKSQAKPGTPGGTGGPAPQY

[3] = test system: U-87 MG; experiment: Induction of apoptosis in human U87 cells assessed as viable cells at 0.1 uM incubated for 48 hrs in presence of 4-(4-(3-(4-chloro-3-(trifluoromethyl)phenyl)ureido)phenoxy)-N-(prop-2-yn-1-yl)picolinamide by Annexin V-FLTC/PI staining based flow cytometry (reference value: 86.74 %); format: functional, U-87MG ATCC; settings: read-out: Activity
[4] = test system: U-87 MG; experiment: Induction of apoptosis in human U87 cells assessed as late apoptotic cells at 1 uM incubated for 48 hrs in presence of 4-(4-(3-(4-chloro-3-(trifluoromethyl)phenyl)ureido)phenoxy)-N-(prop-2-yn-1-yl)picolinamide by Annexin V-FLTC/PI staining based flow cytometry (reference value: 3.71 %); format: functional, U-87MG ATCC
[5] = test system: U-87 MG; experiment: Induction of apoptosis in human U87 cells assessed as necrotic cells at 20 uM incubated for 48 hrs in presence of 4-(4-(3-(4-chloro-3-(trifluoromethyl)phenyl)ureido)phenoxy)-N-(prop-2-yn-1-yl)picolinamide by Annexin V-FLTC/PI staining based flow cytometry (reference value: 0.60 %); format: functional, U-87MG ATCC
[6] = target: T1, Ephrin type-B receptor 4 (Homo sapiens); experiment: Induction of EphB4 degradation in human U87 cells at 2 uM incubated for 48 hrs in presence of (2S,4R)-1-((S)-2-(5-azidopentanamido)-3,3-dimethylbutanoyl)-4-hydroxy-N-(4-(4-methylthiazol-5-yl)benzyl)pyrrolidine-2-carboxamide by Western blot analysis; format: cell-based
[7] = test system: U-87 MG; experiment: Induction of apoptosis in human U87 cells assessed as viable cells at 20 uM incubated for 48 hrs in presence of (2S,4R)-1-((S)-2-(5-azidopentanamido)-3,3-dimethylbutanoyl)-4-hydroxy-N-(4-(4-methylthiazol-5-yl)benzyl)pyrrolidine-2-carboxamide by Annexin V-FLTC/PI staining based flow cytometry (reference value: 86.74 %); format: functional, U-87MG ATCC; settings: read-out: Activity
[8] = test system: U-87 MG; experiment: Induction of apoptosis in human U87 cells assessed as late apoptotic cells at 0.1 uM incubated for 48 hrs in presence of (2S,4R)-1-((S)-2-(5-azidopentanamido)-3,3-dimethylbutanoyl)-4-hydroxy-N-(4-(4-methylthiazol-5-yl)benzyl)pyrrolidine-2-carboxamide by Annexin V-FLTC/PI staining based flow cytometry (reference value: 3.71 %); format: functional, U-87MG ATCC
[9] = target: Vascular endothelial growth factor receptor 2 (Homo sapiens) (UniProt P35968); experiment: Induction of VEGFR2 degradation in human U87 cells upto 10 uM incubated for 48 hrs by Western blot analysis; format: cell-based
[10] = test system: U-87 MG; experiment: Induction of cell cycle arrest at S phase in human U87 cells incubated for 48 hrs in presence of (2S,4R)-1-((S)-2-(5-azidopentanamido)-3,3-dimethylbutanoyl)-4-hydroxy-N-(4-(4-methylthiazol-5-yl)benzyl)pyrrolidine-2-carboxamide by PI staining based flow cytometry; format: functional; settings: U-87MG ATCC, dose 0.1-1 µM

Vascular endothelial growth factor receptor 2 (Homo sapiens), sequence (P35968 whole entry): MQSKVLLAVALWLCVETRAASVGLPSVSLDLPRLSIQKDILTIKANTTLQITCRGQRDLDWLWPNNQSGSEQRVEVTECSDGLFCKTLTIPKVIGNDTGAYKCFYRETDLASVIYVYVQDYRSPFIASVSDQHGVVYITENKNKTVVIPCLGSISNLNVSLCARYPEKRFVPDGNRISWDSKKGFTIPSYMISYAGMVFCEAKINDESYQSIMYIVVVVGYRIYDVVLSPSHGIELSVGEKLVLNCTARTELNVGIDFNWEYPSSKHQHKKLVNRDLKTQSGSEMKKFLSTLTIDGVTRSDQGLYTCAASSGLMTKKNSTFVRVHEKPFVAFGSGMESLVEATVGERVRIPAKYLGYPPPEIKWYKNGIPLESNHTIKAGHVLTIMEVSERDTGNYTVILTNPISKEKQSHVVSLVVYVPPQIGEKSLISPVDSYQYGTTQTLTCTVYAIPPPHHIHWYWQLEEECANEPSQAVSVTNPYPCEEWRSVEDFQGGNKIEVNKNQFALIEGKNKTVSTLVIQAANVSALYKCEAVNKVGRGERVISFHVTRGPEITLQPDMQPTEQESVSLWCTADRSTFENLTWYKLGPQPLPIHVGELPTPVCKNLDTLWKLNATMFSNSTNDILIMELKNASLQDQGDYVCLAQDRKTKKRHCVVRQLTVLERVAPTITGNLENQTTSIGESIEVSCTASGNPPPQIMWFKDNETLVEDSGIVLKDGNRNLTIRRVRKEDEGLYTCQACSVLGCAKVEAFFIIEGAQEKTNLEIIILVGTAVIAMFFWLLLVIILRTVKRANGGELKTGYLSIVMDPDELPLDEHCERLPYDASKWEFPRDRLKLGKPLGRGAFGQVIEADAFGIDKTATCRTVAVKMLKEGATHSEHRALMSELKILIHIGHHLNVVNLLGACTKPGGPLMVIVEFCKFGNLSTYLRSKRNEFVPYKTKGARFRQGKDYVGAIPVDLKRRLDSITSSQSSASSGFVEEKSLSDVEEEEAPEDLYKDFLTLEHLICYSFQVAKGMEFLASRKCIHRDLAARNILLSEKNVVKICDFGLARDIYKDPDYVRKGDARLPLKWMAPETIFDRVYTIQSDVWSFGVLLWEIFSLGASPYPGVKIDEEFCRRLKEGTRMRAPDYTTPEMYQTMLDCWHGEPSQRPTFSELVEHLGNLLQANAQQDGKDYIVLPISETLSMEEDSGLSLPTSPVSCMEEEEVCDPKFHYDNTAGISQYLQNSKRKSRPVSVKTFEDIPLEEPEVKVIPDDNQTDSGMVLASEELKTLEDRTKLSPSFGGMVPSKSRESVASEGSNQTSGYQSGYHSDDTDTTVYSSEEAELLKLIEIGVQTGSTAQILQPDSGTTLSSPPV

[N-]=[N+]=NCCCC(=O)Nc1cccc2c1C(=O)N(C1CCC(=O)NC1=O)C2=O (stereo not given)
Activity [1]: 72.58% | Activity [2]: Active | viability at 0.1 µM [3]: 85.3% | Activity [4]: 5.43% | Activity [5]: 6.36%

C#CCNC(=O)c1cc(Oc2ccc(NC(=O)Nc3ccc(Cl)c(C(F)(F)F)c3)cc2)ccn1
Activity [6]: Active | viability at 20 µM [7]: 9.88% | Activity [8]: 3.35% | Activity [9]: inactive | Activity [10]: Dose-Dependent Effect
